# In US20230085307A1, “PYRIDAZINONE COMPOUND AND HERBICIDE” (NISSAN CHEMICAL CORPORATION, priority 2019, published 2023):
row,melting point,Structure (SMILES)
1,161 to 163 °C,"COc1ccccc1-c1sc2ccc(I)cc2c1-c1c(OC)c(C)nn(C)c1=O [Compound No. 2-131, 4-(5-iodo-2-(2-methoxyphenyl)benzo[b]thiophen-3-yl)-5-methoxy-2,6-dimethylpyridazin-3(2H)-one]"
2,219 to 221 °C,"COc1ccccc1-c1sc2ccc(N)cc2c1-c1c(OC)c(C)nn(C)c1=O [Compound No. 2-174, 4-(5-amino-2-(2-methoxyphenyl)benzo[b]thiophen-3-yl)-5-methoxy-2,6-dimethylpyridazin-3(2H)-one]"
